Reference: patent US11013228B2, “Method of processing allograft skin for transplantation, and cryopreserved allograft skin produced thereby” (CG BIO CO., LTD., priority 2009, dated 2021)
Values joined by “and” are separate entries in the source; they are usually repeats but may differ in a detail not shown here. Equal values may be shown once.

Test system: pig skin
Assay: TUNEL assay, cell death rate according to sucrose concentration in the cryoprotectant
Assay type: cell-based
Details: for cell death rate, AVE: average of 6 samples
Protocol: Because human skin tissue harvested from a donor (cadaver) is prohibited from being used in an experiment, pig skin—which is the closest to human skin—is used for preparing ten (10) of both cryopreserved skins and glycerol-preserved skins according to the following methods of Example and Comparative Example. To investigate the change of the cell death rate according to the difference of sucrose concentration, the cryopreserved allograft skin was prepared by the same method as in the Example except that the sucrose concentration in the cryoprotectant was 5, 10, 15, 20, 25, 30, 35 and 40 wt %, and it was then analyzed by TUNEL assay. TUNEL assay was carried out by using an In Situ Cell Death Detection Kit, Fluorescein (Roche, Germany) according to the manufacturer's instructions, and 4′,6-diamidino-2-phenylindole (DAPI) was used as a fluorescent marker. The results of cell death rate are shown in the following Table 1, and represented in FIG. 6 as a graph.

Compound: OC[C@H]1O[C@@](CO)(O[C@H]2O[C@H](CO)[C@@H](O)[C@H](O)[C@H]2O)[C@@H](O)[C@@H]1O [Sucrose, sucrose]
- cell death rate (sucrose 25 to 40 wt % in the final concentration, Table 1 and FIG. 6): quite low
- cell death rate, AVE (sucrose conc. 5 wt % in cryoprotectant): 48%
- cell death rate (sucrose conc. 5 wt % in cryoprotectant, individual samples n 1-6): 65% and 45% and 36% and 64% and 39% and 41%
- cell death rate, AVE (sucrose conc. 10 wt % in cryoprotectant): 47%
- cell death rate (sucrose conc. 10 wt % in cryoprotectant, individual samples n 1-6): 26% and 49% and 55% and 57% and 56% and 41%
- cell death rate, AVE (sucrose conc. 15 wt % in cryoprotectant): 41%
- cell death rate (sucrose conc. 15 wt % in cryoprotectant, individual samples n 1-6): 25% and 31% and 22% and 47% and 57% and 66%
- cell death rate, AVE (sucrose conc. 20 wt % in cryoprotectant): 35%
- cell death rate (sucrose conc. 20 wt % in cryoprotectant, individual samples n 1-6): 43% and 35% and 21% and 22% and 23% and 68%
- cell death rate, AVE (sucrose conc. 25 wt % in cryoprotectant): 28%
- cell death rate (sucrose conc. 25 wt % in cryoprotectant, individual samples n 1-6): 19% and 23% and 28% and 64% and 12% and 20%
- cell death rate, AVE (sucrose conc. 30 wt % in cryoprotectant): 20%
- cell death rate (sucrose conc. 30 wt % in cryoprotectant, individual samples n 1-6): 20% (2×) and 23% and 39% and 11% and 5%
- cell death rate, AVE (sucrose conc. 35 wt % in cryoprotectant): 23%
- cell death rate (sucrose conc. 35 wt % in cryoprotectant, individual samples n 1-6): 30% and 25% and 10% and 23% and 28% and 21%
- cell death rate, AVE (sucrose conc. 40 wt % in cryoprotectant): 28%
- cell death rate (sucrose conc. 40 wt % in cryoprotectant, individual samples n 1-6): 13% and 36% and 33% and 41% and 26% and 20%
